Results reported in ChEMBL document CHEMBL1157390, “Aplysinoplides A-C, cytotoxic sesterterpenes from the marine sponge Aplysinopsis digitata” (J Nat Prod, 2008).
≈ marks a conversion by molar mass, not a printed value. Calls of active or inactive are those of the source. The calls are words filed in the database; no cut-off is given here.

Columns and labels:
[1] = biological target: Phospholipase A2 (Bos taurus) (UniProt P00593); assay: Inhibition of bovine pancreas PLA2 at 100 uM by pH-stat assay
[2] = test system: P388; assay: Cytotoxicity against mouse P388 cells after 96 hrs by MTT assay; assay type: functional, cell-based; conditions: P388, 96 h

Chain of Phospholipase A2 (Bos taurus) (P00593 whole entry): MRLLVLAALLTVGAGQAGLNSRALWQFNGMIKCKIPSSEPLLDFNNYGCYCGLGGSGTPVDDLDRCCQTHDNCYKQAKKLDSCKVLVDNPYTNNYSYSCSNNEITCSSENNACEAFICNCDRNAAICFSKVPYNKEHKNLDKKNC

Row | Compound | Activity [1] | IC50 [2] [mg/L]
1 | CC1=C(CC/C(C)=C/CCC2=CC[C@H](C3=CC(=O)O[C@H]3O)O[C@H]2O)C(C)(C)CCC1 | Active | 
2 | CC1=C(CC/C(C)=C/CC/C(=C\C=C\C2=CC(=O)OC2O)CO)C(C)(C)CCC1 (stereo unspecified) [APLYSINOPLIDE A] | inactive | 0.45 (≈ 1.12 µM)
3 | CC1=C(CC/C(C)=C/CC/C(=C\CC(O)C2=CC(=O)OC2O)CO)C(C)(C)CCC1 (stereo unspecified) [APLYSINOPLIDE B] | inactive | 0.45 (≈ 1.08 µM)
4 | C/C(=C\CC/C(=C/CC1OC(=O)C=C1CO)CO)CCC1C(C)(C)CCCC1(C)O (stereo unspecified) [APLYSINOPLIDE C] |  | 11 (≈ 26.2 µM)
